{"source": "patent US20210213134A1", "about": "“THIOL-BASED MULTIVALENT DRUG DELIVERY COMPOSITIONS” (ORPRO THERAPEUTICS, INC., priority 2018, published 2021)", "key": {"[1]": {"target": "T1, insulin disulfides (heterodimeric insulin) (Homo sapiens, UniProt P01308)", "T1 construct": "fully disulfide-bonded heterodimeric insulin", "T1 sequence (P01308 25-54 limits assumed)": "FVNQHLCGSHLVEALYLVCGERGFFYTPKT", "T1 sequence (P01308 90-110 limits assumed)": "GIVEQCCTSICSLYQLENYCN", "test": "single-turnover insulin protein disulfide reduction assay (RP-HPLC of insulin heterodimer peak)", "type": "biochemical", "details": "relative GSH:TRX concentrations comparable to the airway, pH 8, FIG. 1", "method": "Left side of FIG. 1—polyacrylamide gel electrophoresis of native human thioredoxin-1 (TRX). Lane 1: Molecular weight standards; Lane 2: Oxidized TRX; Lane 3: Oxidized TRX following reaction with dithiothreitol (DTT); Lane 4: Oxidized TRX following reaction with reduced glutathione (GSH); Lane 5: Oxidized TRX following reaction with GSH followed by DTT. Right side of FIG. 1—TRX was oxidized by exposure to ambient air for one week then incubated with either DTT or GSH at pH 8 for 1 hour followed by purification over a size exclusion column to remove unreacted free DTT or GSH after which the TRX was collected and used in a single-turnover insulin protein-disulfide reduction assay. […] After 30 min, 60 min and 120 minutes aliquots were taken and diluted with 0.1% TFA and 17 uM (final) iodoacetic acid and analyzed over RP-HPLC. Absorbance was monitored at 214 nm and the peak area of the insulin heterodimer fraction was determined at each time point to quantify TRX protein disulfide-reducing activity.\nC35STRX was oxidized and Lys residues were conjugated to an azido-PEG linker. The conjugated material was then reduced and tested for molecular weight using SDS-PAGE (FIG. 5D) and MALDI-TOF (FIG. 5E) and activity assessed using a single-turnover insulin protein disulfide reduction assay. […]"}, "[2]": {"details": "inhalation vs. i.v.; cited from earlier work"}}}
{"smiles": "N[C@@H](CCC(=O)N[C@@H](CS)C(=O)NCC(=O)O)C(=O)O", "note": "[GSH, reduced glutathione, reference compound]", "values": [{"measurement": "restoration of insulin disulfide bond reduction activity to oxidized TRX", "setting": "[1]", "value": "capable of restoring insulin disulfide bond reduction activity to oxidized TRX"}]}
{"smiles": "CN[C@H](CC(C)C)C(=O)N[C@H]1C(=O)N[C@@H](CC(N)=O)C(=O)N[C@H]2C(=O)N[C@H]3C(=O)N[C@H](C(=O)N[C@H](C(=O)O)c4cc(O)cc(O)c4-c4cc3ccc4O)[C@H](O)c3ccc(c(Cl)c3)Oc3cc2cc(c3O[C@@H]2O[C@H](CO)[C@@H](O)[C@H](O)[C@H]2O[C@H]2C[C@](C)(N)[C@H](O)[C@H](C)O2)Oc2ccc(cc2Cl)[C@H]1O", "note": "[vancomycin]", "values": [{"measurement": "systemic exposure level by inhalation delivery relative to equivalent i.v.", "setting": "[2]", "value": "~50", "unit": "%"}]}
